Data from article PMC11472320, “Computationally Driven Discovery of a BCR-ABL1 Kinase Inhibitor with Activity in Multidrug-Resistant Chronic Myeloid Leukemia” (Journal of Medicinal Chemistry, 2024).
Like-named read-outs stand apart in the source and are kept apart here. Each block holds one compound with its values, some of them ahead of it.

Key:
[1] = cited from earlier work
MDCKII-MDR1 cells [2] = details: cited from earlier work
mutant BCR-ABL1 kinases = experiment: Biochemical kinase inhibition, summary statements; set-up: species or system human; details: read-out: IC50 against mutant BCR-ABL1 kinases
[3] = target: T1, hERG potassium ion channel (Homo sapiens, UniProt Q12809); experiment: hERG safety evaluation by manual patch-clamp (HEK 293); format: cell-based; details: mean ± SEM in Table S11
T1 construct: host or cells: HEK 293
T1 sequence (Q12809 whole entry): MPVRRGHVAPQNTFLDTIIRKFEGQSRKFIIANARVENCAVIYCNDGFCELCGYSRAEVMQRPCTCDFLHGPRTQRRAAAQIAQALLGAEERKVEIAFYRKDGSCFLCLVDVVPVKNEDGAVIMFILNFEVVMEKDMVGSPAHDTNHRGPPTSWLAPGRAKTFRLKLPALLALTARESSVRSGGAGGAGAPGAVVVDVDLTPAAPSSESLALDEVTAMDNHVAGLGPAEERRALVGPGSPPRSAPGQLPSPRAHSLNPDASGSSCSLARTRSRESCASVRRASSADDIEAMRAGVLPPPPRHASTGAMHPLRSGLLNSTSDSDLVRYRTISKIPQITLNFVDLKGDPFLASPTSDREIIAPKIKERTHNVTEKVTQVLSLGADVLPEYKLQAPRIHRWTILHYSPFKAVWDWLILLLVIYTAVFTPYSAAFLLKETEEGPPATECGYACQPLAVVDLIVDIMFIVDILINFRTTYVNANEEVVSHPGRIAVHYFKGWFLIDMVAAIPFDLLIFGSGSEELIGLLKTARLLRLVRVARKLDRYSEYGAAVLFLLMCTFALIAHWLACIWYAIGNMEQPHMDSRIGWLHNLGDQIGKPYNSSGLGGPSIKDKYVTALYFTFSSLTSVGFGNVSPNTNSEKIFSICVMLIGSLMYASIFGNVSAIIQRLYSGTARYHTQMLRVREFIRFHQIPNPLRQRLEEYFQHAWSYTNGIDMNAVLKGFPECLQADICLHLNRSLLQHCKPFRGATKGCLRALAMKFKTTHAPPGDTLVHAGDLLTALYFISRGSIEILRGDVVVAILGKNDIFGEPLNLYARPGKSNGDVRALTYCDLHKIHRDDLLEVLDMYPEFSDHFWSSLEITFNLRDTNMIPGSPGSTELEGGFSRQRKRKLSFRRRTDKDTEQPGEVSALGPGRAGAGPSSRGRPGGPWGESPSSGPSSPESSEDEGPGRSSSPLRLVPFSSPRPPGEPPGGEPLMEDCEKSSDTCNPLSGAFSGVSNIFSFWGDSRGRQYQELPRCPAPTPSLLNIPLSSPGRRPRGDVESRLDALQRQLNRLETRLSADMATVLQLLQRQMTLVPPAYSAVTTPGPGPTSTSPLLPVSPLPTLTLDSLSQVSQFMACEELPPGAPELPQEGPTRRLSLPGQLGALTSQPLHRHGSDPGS

Lipophilicity logD7.4 = format: physicochemical; details: pH 7.4
Aqueous solubility = format: physicochemical; details: pH 7.4
[4] = Metabolic stability in hepatocytes; format: in vitro ADME, human; details: for hepatocyte CLint: both sexes, read-out: HEPClint (H); for hepatocyte CLint / t1/2 (H): human hepatocytes
Description: (§1) Metabolic stability in hepatocytes
(§2) Table S4. Hepatocyte details used in the hepatocyte stability assay.
(§3) Human Hepatocytes, Mixed-Gender BiolVT (Cat No. X008001)
(§4) Mouse Hepatocytes, Male-Gender BiolVT (Cat No. M005052)

[5] = Plasma protein binding by equilibrium dialysis; format: in vitro ADME; details: human plasma; for fraction unbound / recovery / remaining at 6 h: both sexes
[6] = Plasma protein binding by equilibrium dialysis; format: in vitro ADME; details: mouse plasma; for recovery / remaining at 6 h / fraction unbound: both sexes, CD-1; for fraction unbound: read-out: %Bound (converted)
in vitro [7] = details: dog, MDCK-MDR1
MDR1 (P-gp) = experiment: in vitro; details: dog, MDCK-MDR1
MDR1 = experiment: in vitro; details: dog, MDCK-MDR1
in vitro [8] = details: human, Caco-2
Caco-2 cells = experiment: Caco-2 permeability
MDCKII-MDR1 cells [9] = experiment: MDCKII-MDR1 permeability; details: for Recovery% (BL-AP) / efflux ratio: Table S7
BCR-ABL1 wt = BCR-ABL1 wt (Homo sapiens, UniProt P00519); experiment: KinaseProfiler enzymatic radiometric kinase assay; details: read-out: Kinase IC50 BCR-ABL1 wt; [ATP] = 10 µM, n = 2
Sequence of BCR-ABL1 wt (P00519 27-1130 limits assumed): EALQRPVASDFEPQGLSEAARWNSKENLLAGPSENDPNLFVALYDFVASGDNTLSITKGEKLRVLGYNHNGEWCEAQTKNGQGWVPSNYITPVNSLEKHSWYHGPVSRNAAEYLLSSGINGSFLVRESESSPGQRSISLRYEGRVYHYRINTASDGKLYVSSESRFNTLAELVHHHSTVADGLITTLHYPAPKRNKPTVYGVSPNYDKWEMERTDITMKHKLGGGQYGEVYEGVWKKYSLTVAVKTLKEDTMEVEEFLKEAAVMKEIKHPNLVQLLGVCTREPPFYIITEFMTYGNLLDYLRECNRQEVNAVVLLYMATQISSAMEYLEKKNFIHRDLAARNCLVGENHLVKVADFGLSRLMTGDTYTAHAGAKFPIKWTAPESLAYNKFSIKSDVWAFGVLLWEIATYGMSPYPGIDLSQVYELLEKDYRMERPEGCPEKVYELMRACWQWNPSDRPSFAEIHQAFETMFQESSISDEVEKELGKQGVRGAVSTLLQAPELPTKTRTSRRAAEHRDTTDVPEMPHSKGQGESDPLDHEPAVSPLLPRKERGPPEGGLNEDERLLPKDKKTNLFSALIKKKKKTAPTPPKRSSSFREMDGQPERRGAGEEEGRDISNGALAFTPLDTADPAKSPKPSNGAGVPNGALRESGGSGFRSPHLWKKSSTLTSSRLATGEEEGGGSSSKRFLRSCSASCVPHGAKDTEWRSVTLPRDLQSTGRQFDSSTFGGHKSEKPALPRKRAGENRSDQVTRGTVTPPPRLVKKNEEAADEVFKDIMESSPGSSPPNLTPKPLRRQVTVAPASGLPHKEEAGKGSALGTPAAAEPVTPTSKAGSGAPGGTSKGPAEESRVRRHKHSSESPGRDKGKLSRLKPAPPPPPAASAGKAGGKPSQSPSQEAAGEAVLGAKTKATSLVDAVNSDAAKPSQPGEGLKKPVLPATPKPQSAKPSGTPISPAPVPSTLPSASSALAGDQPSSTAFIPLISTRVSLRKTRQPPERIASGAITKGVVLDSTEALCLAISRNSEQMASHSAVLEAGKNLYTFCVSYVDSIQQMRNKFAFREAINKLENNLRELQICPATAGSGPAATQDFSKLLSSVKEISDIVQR

cSRC wt = cSRC wt (Homo sapiens, UniProt P12931); experiment: KinaseProfiler enzymatic radiometric kinase assay
Sequence of cSRC wt (P12931 whole entry): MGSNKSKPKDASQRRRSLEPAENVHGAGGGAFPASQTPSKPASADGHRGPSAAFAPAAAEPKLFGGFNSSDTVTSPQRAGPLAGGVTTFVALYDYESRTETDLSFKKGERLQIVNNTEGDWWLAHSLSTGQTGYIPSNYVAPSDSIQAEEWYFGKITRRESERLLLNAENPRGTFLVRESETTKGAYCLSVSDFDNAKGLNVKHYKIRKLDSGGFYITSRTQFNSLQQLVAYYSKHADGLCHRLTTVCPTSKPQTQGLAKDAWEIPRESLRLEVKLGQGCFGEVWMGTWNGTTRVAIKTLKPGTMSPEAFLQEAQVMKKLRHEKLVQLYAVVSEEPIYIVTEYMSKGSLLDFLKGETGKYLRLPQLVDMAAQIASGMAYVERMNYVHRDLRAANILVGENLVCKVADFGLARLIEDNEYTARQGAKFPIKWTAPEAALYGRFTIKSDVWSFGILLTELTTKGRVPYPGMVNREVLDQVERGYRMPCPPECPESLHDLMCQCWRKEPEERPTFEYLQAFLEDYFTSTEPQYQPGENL

K562 cells = experiment: Cell viability assay (CellTiter-Glo); format: cell-based, human
[10] = Metabolic stability in hepatocytes; format: in vitro ADME, mouse
Description: as §1, §2, §3, §4

SMILES: COc1cc(Nc2c(C#N)cnc3cc(OCCON4CCN(C)CC4)c(OC)cc23)c(Cl)cc1Cl [5a]
Micronucleus [1]: Negative

SMILES: COc1cc2ncnc(Nc3ccc(F)c(Cl)c3)c2cc1OCCON1CCN(C)CC1 [6a]
MDCKII-MDR1 Efflux Ratio (MDCKII-MDR1 cells [2]): 8.7
P-gp efflux status (MDCKII-MDR1 cells [2]): P-gp Substrate

IC50 (mutant BCR-ABL1 kinases): ≥ 15 nM
logD (Lipophilicity logD7.4): 2.7
Aq. Sol. (Aqueous solubility): 123 µM
Remaining Percentages ([4]; 0.5 min): 100.00%
Remaining Percentages ([4]; 15 min): 87.31%
Remaining Percentages ([4]; 30 min): 80.64%
Remaining Percentages ([4]; 60 min): 60.46%
Remaining Percentages ([4]; 90 min): 46.43%
Remaining Percentages ([4]; 120 min): 35.84%
hepatocyte CLint [4]: 17.2 µL/min/1e6 cells
t1/2 (H) [4]: 1.34 h
fraction unbound [5]: 0.0737
recovery [5]: 92.5%
remaining at 6 h [5]: 97.8%
%Unbound [5]: 7.37%
recovery [6]: 92%
remaining at 6 h [6]: 96.7%
fraction unbound [6]: 0.119
%Unbound [6]: 11.93%
recovery (in vitro [7]): 95%
Papp A→B (MDR1 (P-gp)): 12.5 ×10⁻⁶ cm/s
Papp B→A (MDR1 (P-gp)): 39 ×10⁻⁶ cm/s
Papp A→B (MDR1): 12.5 ×10⁻⁶ cm/s
Papp B→A (MDR1): 39 ×10⁻⁶ cm/s
efflux ratio (MDR1): 3.1
Papp A→B (in vitro [8]): 6.46 ×10⁻⁶ cm/s
Papp B→A (in vitro [8]): 23.1 ×10⁻⁶ cm/s
efflux ratio (in vitro [8]): 3.6
recovery (in vitro [8]): 76.2%
Recovery% (BL-AP) (Caco-2 cells; Table S9): 87.19%
efflux ratio (Caco-2 cells; Table S9): 3.58
Caco-2 Papp (a-b) (Caco-2 cells): 6.5 ×10⁻⁶ cm/s
Caco-2 Papp (b-a) (Caco-2 cells): 23.1 ×10⁻⁶ cm/s
enhancement in permeability in MDCKII-MDR1 cells relative to bosutinib (MDCKII-MDR1 cells [9]): 31 fold
Recovery% (BL-AP) (MDCKII-MDR1 cells [9]): 91.60%
efflux ratio (MDCKII-MDR1 cells [9]): 3.22
IC50 (BCR-ABL1 wt): 20 nM
IC50 (cSRC wt): 14 nM
SMILES: COc1cc2c(Nc3cccc(OC)c3Cl)c(C#N)cnc2cc1OCCON1CCN(C)CC1 [12a, 4-((2-Chloro-3-methoxyphenyl)amino)-6-methoxy-7-(2-((4-methylpiperazin-1-yl)oxy)ethoxy)quinoline-3-carbonitrile]
IC50 [3]: 5160 nM

IC50 (mutant BCR-ABL1 kinases): ≥ 15 nM
logD (Lipophilicity logD7.4): 2.6
Aq. Sol. (Aqueous solubility): 29 µM
Remaining Percentages ([4]; 0.5 min): 100.00%
Remaining Percentages ([4]; 15 min): 97.02%
Remaining Percentages ([4]; 30 min): 95.67%
Remaining Percentages ([4]; 60 min): 80.41%
Remaining Percentages ([4]; 90 min): 67.22%
Remaining Percentages ([4]; 120 min): 54.89%
hepatocyte CLint [4]: 10.3 µL/min/1e6 cells
t1/2 (H) [4]: 2.243 h
fraction unbound [5]: 0.13
recovery [5]: 87.8%
remaining at 6 h [5]: 98.3%
%Unbound [5]: 12.97%
recovery (in vitro [7]): 93.1%
Papp A→B (MDR1 (P-gp)): 7.5 ×10⁻⁶ cm/s
Papp B→A (MDR1 (P-gp)): 54.4 ×10⁻⁶ cm/s
Papp A→B (MDR1): 7.53 ×10⁻⁶ cm/s
Papp B→A (MDR1): 54.4 ×10⁻⁶ cm/s
efflux ratio (MDR1): 7.3
Papp A→B (in vitro [8]): 2.72 ×10⁻⁶ cm/s
Papp B→A (in vitro [8]): 33.6 ×10⁻⁶ cm/s
efflux ratio (in vitro [8]): 12.4
recovery (in vitro [8]): 84.8%
Recovery% (BL-AP) (Caco-2 cells; Table S9): 92.56%
efflux ratio (Caco-2 cells; Table S9): 12.36
Caco-2 Papp (a-b) (Caco-2 cells): 2.7 ×10⁻⁶ cm/s
Caco-2 Papp (b-a) (Caco-2 cells): 33.6 ×10⁻⁶ cm/s
Recovery% (BL-AP) (MDCKII-MDR1 cells [9]): 105.61%
efflux ratio (MDCKII-MDR1 cells [9]): 7.26
IC50 (BCR-ABL1 wt): 19 nM
IC50 (cSRC wt): 34 nM
SMILES: COc1cc2c(Nc3cccc(OC)c3F)c(C#N)cnc2cc1OCCON1CCN(C)CC1 [13a, 4-((2-Fluoro-3-methoxyphenyl)amino)-6-methoxy-7-(2-((4-methylpiperazin-1-yl)oxy)ethoxy)quinoline-3-carbonitrile]

IC50 (K562 cells; Homo sapiens, K562, 72 h, read-out: K562 Cell Line IC50 (95% CI), 72 h, n = 3, unadjusted for FBS): 218 nM
IC50 (K562 cells; read-out: K562 Cell Line IC50 (95% CI), 72 h, n = 3, unadjusted for FBS): 186 nM
logD (Lipophilicity logD7.4): 3.1
Aq. Sol. (Aqueous solubility): 7 µM
Remaining Percentages ([4]; 0.5 min): 100.00%
Remaining Percentages ([4]; 15 min): 83.13%
Remaining Percentages ([4]; 30 min): 68.12%
Remaining Percentages ([4]; 60 min): 50.16%
Remaining Percentages ([4]; 90 min): 37.41%
Remaining Percentages ([4]; 120 min): 25.52%
hepatocyte CLint [4]: 22.3 µL/min/1e6 cells
t1/2 (H) [4]: 1.04 h
recovery (in vitro [7]): 75.4%
Papp A→B (MDR1 (P-gp)): 4.1 ×10⁻⁶ cm/s
Papp B→A (MDR1 (P-gp)): 24.7 ×10⁻⁶ cm/s
Papp A→B (MDR1): 4.08 ×10⁻⁶ cm/s
Papp B→A (MDR1): 24.7 ×10⁻⁶ cm/s
efflux ratio (MDR1): 6
Papp A→B (in vitro [8]): 1.99 ×10⁻⁶ cm/s
Papp B→A (in vitro [8]): 37.4 ×10⁻⁶ cm/s
efflux ratio (in vitro [8]): 18.7
Recovery% (AP-BL) (Caco-2 cells; Table S9): 65.43%
Recovery% (BL-AP) (Caco-2 cells; Table S9): 92.37%
efflux ratio (Caco-2 cells; Table S9): 18.96
Caco-2 Papp (a-b) (Caco-2 cells): 2 ×10⁻⁶ cm/s
Caco-2 Papp (b-a) (Caco-2 cells): 37.4 ×10⁻⁶ cm/s
Recovery% (BL-AP) (MDCKII-MDR1 cells [9]): 77.51%
efflux ratio (MDCKII-MDR1 cells [9]): 6.05
IC50 (BCR-ABL1 wt): < 1 nM
IC50 (cSRC wt): 2 nM
SMILES: COc1cc(Nc2c(C#N)cnc3cc(OCCON4CCN(C)CC4)c(OC)cc23)ccc1Cl [14a]

logD (Lipophilicity logD7.4): 3.1
Aq. Sol. (Aqueous solubility): 0.8 µM
Remaining Percentages ([4]; 0.5 min): 100.00%
Remaining Percentages ([4]; 15 min): 78.44%
Remaining Percentages ([4]; 30 min): 63.53%
Remaining Percentages ([4]; 60 min): 43.29%
Remaining Percentages ([4]; 90 min): 27.95%
Remaining Percentages ([4]; 120 min): 20.14%
hepatocyte CLint [4]: 26.8 µL/min/1e6 cells
t1/2 (H) [4]: 0.862 h
Remaining Percentages ([10]; 0.5 min): 100.00%
Remaining Percentages ([10]; 15 min): 55.53%
Remaining Percentages ([10]; 30 min): 28.57%
Remaining Percentages ([10]; 60 min): 13.26%
Remaining Percentages ([10]; 90 min): 6.75%
Remaining Percentages ([10]; 120 min): 2.89%
fraction unbound [5]: 0.0773
recovery [5]: 95.8%
remaining at 6 h [5]: 99.4%
%Unbound [5]: 7.73%
recovery [6]: 95.9%
remaining at 6 h [6]: 106%
fraction unbound [6]: 0.0971
%Unbound [6]: 9.71%
recovery (in vitro [7]): 84.5%
Papp A→B (MDR1 (P-gp)): 5.9 ×10⁻⁶ cm/s
Papp B→A (MDR1 (P-gp)): 24.8 ×10⁻⁶ cm/s
Papp B→A (MDR1): 24.8 ×10⁻⁶ cm/s
efflux ratio (MDR1): 4.2
Papp A→B (in vitro [8]): 0.71 ×10⁻⁶ cm/s
Papp B→A (in vitro [8]): 4.44 ×10⁻⁶ cm/s
efflux ratio (in vitro [8]): 6.3
recovery (in vitro [8]): 72.2%
Recovery% (BL-AP) (Caco-2 cells; Table S9): 78.22%
efflux ratio (Caco-2 cells; Table S9): 6.24
Caco-2 Papp (a-b) (Caco-2 cells): 0.7 ×10⁻⁶ cm/s
Caco-2 Papp (b-a) (Caco-2 cells): 4.4 ×10⁻⁶ cm/s
Recovery% (BL-AP) (MDCKII-MDR1 cells [9]): 72.29%
IC50 (BCR-ABL1 wt): 6 nM
IC50 (cSRC wt): 11 nM
SMILES: COc1cc(Cl)ccc1Nc1c(C#N)cnc2cc(OCCON3CCN(C)CC3)c(OC)cc12 [15a, 4-((4-Chloro-2-methoxyphenyl)amino)-6-methoxy-7-(2-((4-methylpiperazin-1-yl)oxy)ethoxy)quinoline-3-carbonitrile]
IC50 [3]: 4360 nM

SMILES: COc1cc2ncnc(Nc3cccc(Cl)c3F)c2cc1OC(=O)N1CCN(C)C[C@H]1C [AZD3759]
MDCKII-MDR1 Efflux Ratio (MDCKII-MDR1 cells [2]): 0.4
P-gp efflux status (MDCKII-MDR1 cells [2]): Not a P-gp Substrate
